Results on two molecules are retold here after article PMC2857344 (2010).

In assay [1] the test system is WT 3MX-binding aptamer (RNA, aptamer) GGCGAUACCAGCCGAAAGGCCAUUGGAAGCGUC
In words: ITC. As to conditions: 100 mM NaCl, 10 mM MgCl2; 100 mM HEPES, 0.1 mM EDTA, pH 7.5, 25 °C.

Assay [2] deals with WT theophylline-binding aptamer (RNA, aptamer) GGCGAUACCAGCCGAAAGGCCCUUGGCAGCGUC
In words: ITC. As to conditions: 100 mM NaCl, 10 mM MgCl2; 100 mM HEPES, 0.1 mM EDTA, pH 7.5, 25 °C.

Assay [3] deals with P10 (3MX-binding aptamer) (RNA, aptamer, 2-aminopurine at 10 (replaces A10)) GGCGAUACCAGCCGAAAGGCCAUUGGAAGCGUC
In words: ITC. As to conditions: 100 mM NaCl, 10 mM MgCl2; 100 mM HEPES, 0.1 mM EDTA, pH 7.5, 25 °C.

For assay [4], the system named is P27 (3MX-binding aptamer) (RNA, aptamer, 2-aminopurine at 27) GGCGAUACCAGCCGAAAGGCCAUUGGAAGCGUC
In words: steady-state 2-aminopurine fluorescence titration. As to conditions: 100 mM NaCl, 10 mM MgCl2; 100 mM HEPES, 0.1 mM EDTA, pH 7.5, 25 °C; 100 nM RNA.

The subject of assay [5] is P10 (theophylline-binding aptamer) (RNA, aptamer, 2-aminopurine at 10 (replaces A10)) GGCGAUACCAGCCGAAAGGCCCUUGGCAGCGUC
In words: ITC. As to conditions: 100 mM NaCl, 10 mM MgCl2; 100 mM HEPES, 0.1 mM EDTA, pH 7.5, 25 °C.

Assay [6] relates to P10Z11 (theophylline-binding aptamer) (RNA, aptamer, 2-aminopurine at 10 (replaces A10); 7-deazaguanine at 11) GGCGAUACCAGCCGAAAGGCCCUUGGCAGCGUC
In words: ITC. The note with it: 100 mM NaCl, 10 mM MgCl2; 100 mM HEPES, 0.1 mM EDTA, pH 7.5, 25 °C.

Take `Cn1c(=O)[nH]c(=O)c2[nH]cnc21`: the Kd is 2.7 ± 2.0 µM in assay [1], 1.6 ± 0.5 µM in assay [2], 24 ± 5 µM in assay [3] and 3.6 ± 0.3 µM in assay [4].
As to `Cn1c(=O)c2[nH]cnc2n(C)c1=O`, the Kd worked out at 9.4 ± 0.8 µM in assay [5], 9.4 ± 0.7 µM in assay [6] and 0.86 ± 0.12 µM in assay [2].

The term Kd denotes a measure of binding affinity in units of concentration. A high value points to a looser complex.
